{"source": "patent US6610699B2", "about": "“Use of L-carnitine and its alkanoyl derivatives in the preparation of medicaments with anticancer activity” (Sigma-Tau Industrie Farmaceutiche Riunite S.p.A., priority 1998, dated 2003)", "key": {"[1]": {"test_system": "murine cancer of the breast (L-MM3)", "test": "L-MM3 tumour growth in Balb/c mice (taxol and ALC)", "format": "in vivo, mouse", "method": "Treatment schedule 1: the transplantable murine breast cancer cells (L-MM3) of Balb/c origin are grown at 37° C. in plastic flasks in a 5% CO2 humidified incubator in DMEM medium containing 5% heat-inactivated FCS, L-glutamine 2 mM, and gentamicin 80 μg/ml. At the time of inoculation, the cells are detached with trypsin-EDTA and re-suspended in the same medium without PBS.\nUnanaesthetised female Balb/c mice received subcutaneous injections in the flank of 4×10^5 cells in 0.2 ml of DMEM.\nTreatment schedule 2: the same experimental groups mentioned above, each consisting of 15 mice (with different cage numbers) are treated as follows in order to evaluate survival and tumour size.\nALC administration lasts 14 days (in groups 16, 17, 18) and the tumour is measured until it reaches a size of approximately 2 cm. The animals are left alive for 100 days.\nThe tumour size (length and width) is measured twice a week with a calliper, from the tumour is measurable. Tumour size is expressed in cm and is evaluated according to the following formula: (length×width).\nTumour sizes are compared using the non-parametric Mann Whitney test for unpaired data."}, "Hamsters [2]": {"test_system": "Hamsters", "test": "Bleomycin-induced pulmonary toxicity in hamsters: lung hydroxyproline content", "format": "in vivo, hamster", "conditions": "pre-treatment i.p. (ALC 200 mg/kg or saline, daily 1 week)/intratracheal instillation (bleomycin 1 unit or saline); day 22", "description": "(§1) Hamsters weighing 120 g were treated with bleomycin (1 unit) by the intratracheal route (IT) or with an equivalent volume of saline. In addition, the animals were pre-treated with ALC (200 mg/kg) or saline intraperitoneally just before the instillation of bleomycin, followed by daily injections for 1 week. The animals were allowed 3 weeks to recover prior to taking the tissue samples. At the time tissue samples were taken (day 22), one lung of each animal was prepared for histological investigation and the other lung for quantitative determination of hydroxyproline.\nThe hydroxyproline content (one of the main constituents of collagen) was measured using the known Woessner method. Lung samples were homogenised, hydrolysed with NaOH, and then left to oxidise before adding Erlich aldehyde reagent. Duplicate aliquots of each sample were assayed by spectrophotometry and compared with a standard calibration curve obtained with purified hydroxyproline. The hydroxyproline content (HYP) is expressed as mg/lung."}, "Hamsters [3]": {"test_system": "Hamsters", "test": "Bleomycin-induced pulmonary toxicity in hamsters: lung histology", "format": "in vivo, hamster", "conditions": "day 22", "description": "as §1\nThe lungs were fixed by insufflation at 20 cm of H2O ex vivo with 10% formaldehyde in PBS (pH 7), embedded in paraffin, sectioned and stained with haematoxylin/eosin. Sections with similar orientation from the portion of the pulmonary lobe—upper, middle and lower, respectively—were examined to verify the presence and degree of inflammatory infiltrate, oedema and interstitial and intra-alveolar fibrosis."}, "LOVO human colon cancer": {"test_system": "LOVO human colon cancer", "conditions": "ALC 100 mg/kg qdx18 alone", "method": "Cell cultures of LOVO human colon cancer, transplanted in hairless mice, were used.\nThe tumour was inoculated in solid fragments in both flanks of the mice (day 0).\nThe inoculated tumours were measured with a calliper and when a mean tumour weight of 100 mg was reached (day 7), the animals were divided into 4 groups of 5 animals each according to the following schedule:\nOn the same day, ALC treatment was initiated and was continued for 18 consecutive days (qdx18) (groups 3 and 4). ALC was administered at the dose of 100 mg/kg with an administration volume of 25 ml/kg.\nIn the course of the treatment and in the following three weeks at fortnightly intervals, the tumours were measured and tumour volume inhibition was calculated (TVI%, calculated as 100-(mean weight of tumours treated/mean weight of control tumours×100)) as obtained with the various treatments."}, "M109 murine lung cancer": {"test_system": "M109 murine lung cancer", "test": "Growth of M109 murine lung cancer in BALB/c mice", "format": "in vivo, mouse", "conditions": "for Tumour size, Day 8 / Tumour size, Day 11 / Tumour size, Day 13 / Tumour size, Day 15 / Tumour size, Day 20: taxol 30 mg/kg i.p., ALC 100 mg/kg os; for Tumour size, Day 8: day 8 post-inoculation; for Tumour size, Day 11: day 11 post-inoculation; for Tumour size, Day 13: day 13 post-inoculation; for Tumour size, Day 15: day 15 post-inoculation; for Tumour size, Day 20: day 20 post-inoculation", "description": "Each ampoule of ALC is dissolved in 4 ml of the solvent provided (solution O). To be precise, 1.6 ml of solution O are brought to 40 ml with sterile buffer solution (PBS, Sigma P-4417) and then administered orally (100 mg/kg/20 ml).\nAt the time of use, the 12 mg/ml solution is diluted 1:4 with saline in phosphate buffer (PBS) (SIGMA,) and injected i.p. (30 mg/kg/ 10 ml).\nAnimals: 60 female Balb/c mice weighing 18 g (Harlan).\nM109 tumour cells isolated from solid tumour.\nThe procedure described by Kedar E., B. Ikejiri, G. D. Bannard and R. B. Herberman (Eur. J. Cancer Clin. Oncol. 18; 991: 1982) is adopted with modifications. One Balb/c mouse (donor) was sacrificed by cervical dislocation, and after washing its back with denatured alcohol, the dorsal skin was cut longitudinally into two flaps which were detached to remove the tumour mass. The latter was placed on sterile gauze, where it was freed of connective tissue adhesions and of the necrotic and haemorrhagic parts. The study tissue was placed in a plate containing PBS with Ca^++ and Mg^++ (Gibco) at pH 7.2 and cold, broken down into pieces measuring 2-3 mm and re-suspended in a solution (15 ml solution/g tumour) of PBS with Ca^++ and Mg^++, pH 7.2m containing 2 mg/ml trypsin (type III. 10000 U/mg protein, Sigma-Aldrich), 2 mg/ml collagenase (type I-S 180 U/mg solid, Sigma), 0.2 mg/ml DNAse (type I 1548 U/mg protein. Sigma) and 25 μg/ml gentamicin (Sigma) and incubated at 37° C. for 15 minutes under constant stirring. The cell suspension was then homogenised with the aid of a potter (B. Braun) for 2 minutes, incubated at 37° C. for 10 minutes and aspirated gently a number of times with a syringe with a No. 21 sterile needle. After addition of 30 ml of RPMI-1640 (Eurobio) containing 10% FBS (Eurobio) maintained at 4° C. the cell suspension was filtered on sterile gauze and then centrifuged at 700 g for 10 minutes. The cell pellet was re-suspended gently in RPMI-1640 containing 10% FBS and 0.2 mg/ml DNAse (Sigma) and then centrifuged at 700 g for 10 minutes. The pellet was consecutively subjected to two washings with RPMI-1640; at the end of the last washing, the pellet was re-suspended gently in RPMI-1640 so as to perform the count to establish the cell concentration.\nInoculation conditions: 60 unanaesthetised Balb/c mice weighing approximately 18 g (Harlan) received i.m. injections of 3×10^5 M109 lung cancer cells in 0.1 ml of RPMI-1640 (Sigma) in the right rear paw.\nTreatment schedule: for the purposes of evaluating tumour size in the experimental study groups, each consisting of 15 Balb/c mice, 3×10^5 M109 lung cancer cells were inoculated, and the study molecules were administered at the scheduled times. […] The vehicle diluted 1:4 with PBS from the mother solution was administered i.p. on days 8, 10, 12 and 14.\nThe tumour mass is calculated on the basis of the measurements of the two dimensions (length and width), expressed in mm. according to the following formula: [formula]\nIf we consider conventionally a tumour density equal to 1, the result is that the tumour volume expressed in mm^3 is equal to the weight of the tumour expressed in mg."}, "Female Wistar rats": {"test_system": "Female Wistar rats", "test": "Taxol-induced peripheral neuropathy: sensory nerve conduction velocity measured on the tail", "conditions": "5 weeks", "method": "Female Wistar rats aged 3 months (Charles River) were used, housed at 22±2° C., with 50±15% relative humidity and a 12 hour light/darkness cycle.\nThe following method was used: the animals, anaesthetised with a gaseous mixture composed of 0.45 halothane, nitrogen protoxide and oxygen, were depilated in the stimulation zone and placed on an operating table. The recordings and stimulations of the sensory responses were done using an Ote Biomedica Phasis II electromyograph. […]\nThe sensory nerve conduction velocity, expressed in ms, was calculated as the ratio of the distance between the two stimulation points, expressed in mm, to the difference in latency of the waves produced by proximal (the nearest) and distal (the farthest from the dorsal spine) stimulation, expressed in ms.\nThe velocity was measured in all groups of animals both in basal conditions (prior to any administration) and after 5 weeks of treatment.\nThe results were expressed as means±standard deviation; significance was assessed using the “t”-test, for both independent and paired data, with a statistical significance cut-off of p<0.05."}, "[4]": {"test_system": "L-MM3 murine breast cancer cells", "test": "L-MM3 murine breast cancer in Balb/c mice, taxol and PLC, Experiment B (schedule B)", "method": "(§2) Cell cultures of L-MM3 murine breast cancer cells were used, cultured at 37° C. in plastic flasks in a humidified atmosphere with 5% CO^2. The cells were grown in DMEM supplemented with 10% FCS and in the presence of 2 mM L-glutamine and 80 μg/ml of gentamicin. The subconfluent cells were collected during the exponential growth phase using trypsin-EDTA and re-suspended in DMEM. They were then injected subcutaneously in female Balb/c mice weighing 20 g at a density of 4×10^5.\n(§3) The tumour was measured with a calliper three times a week as soon as it became palpable. The tumour mass is calculated on the basis of the measurements of the two dimensions (length and width), expressed in mm, according to the following formula: [formula]\n(§4) If we consider conventionally a tumour density equal to 1, the result is that the tumour volume is equal to (mm^3=mg).\n(§5) The agent is weighed, solubilised in the specific vehicle (12 mg/ml), and stored at +4° C., sheltered from the light. At the time of use, it is diluted 1:4 with saline solution in phosphate buffer (PBS, SIGMA) and injected.\n(§6) Cremophor is diluted 1:1 with ethanol and stored sheltered from the light. On the day of treatment it is diluted 1:4 with PBS."}, "[5]": {"test_system": "L-MM3 murine breast cancer cells", "test": "L-MM3 murine breast cancer in Balb/c mice, taxol and PLC, Experiment A (schedule A)", "method": "as §2, §3, §4, §5, §6"}, "[6]": {"conditions": "taxol i.v. 54 mg/kg/15 ml, sacrifice after 3 days' recovery from last taxol administration"}, "[7]": {"conditions": "taxol i.v., sacrifice 6 hours after fourth taxol administration"}}, "note": "Where two headings read alike, the source gives them in different places.", "data": [{"compound": "CC(=O)O[C@H](CC(=O)[O-])C[N+](C)(C)C", "note": "[ALC, acetyl L-carnitine]", "values": [{"measurement": "effect on the anticancer activity of taxol (in words)", "setting": "[1]; ALC 100 mg/kg os once daily for 14 days plus taxol 30 mg/kg i.p. x4", "result": "did not affect the anticancer activity of taxol"}, {"measurement": "hydroxyproline content (HYP)", "setting": "Hamsters [2]", "result": 0.801, "unit": "mg/lung"}, {"measurement": "lung histology (in words)", "setting": "Hamsters [3]; animals pre-treated with ALC and given bleomycin IT", "result": "a number of fibrotic areas, which, however, appeared thinner with less dense areas of collapse"}, {"measurement": "lung histology (in words)", "setting": "Hamsters [3]; pre-treatment/IT instillation", "result": "normal alveolar architecture"}, {"measurement": "effect on tumour growth (in words)", "setting": "LOVO human colon cancer", "result": "no effect on tumour growth"}, {"measurement": "effect on the anticancer action of taxol, inhibition of the tumour mass (in words)", "setting": "M109 murine lung cancer; ALC 100 mg/kg os with taxol 30 mg/kg i.p.", "result": "does not interfere with the anticancer action of taxol"}, {"measurement": "Sensory nerve conduction velocity, % vs TAXOL", "setting": "Female Wistar rats; acetyl L-carnitine with taxol 8 mg/kg", "result": 5, "unit": "%"}, {"measurement": "Sensory nerve conduction velocity, % vs TAXOL", "setting": "Female Wistar rats; acetyl L-carnitine with taxol 16 mg/kg", "result": 9, "unit": "%"}]}, {"compound": "CC(=O)O[C@H]1C(=O)[C@@]2(C)[C@H]([C@H](OC(=O)c3ccccc3)[C@]3(O)C[C@H](OC(=O)[C@H](O)[C@@H](NC(=O)c4ccccc4)c4ccccc4)C(C)=C1C3(C)C)[C@]1(OC(C)=O)CO[C@@H]1C[C@@H]2O", "note": "[Taxol, paclitaxel, reference compound]", "values": [{"measurement": "L-MM3 tumour size", "setting": "[1]; taxol 30 mg/kg i.p. every two days x4, when control tumours reached approximately 2 cm (control 1.8 cm)", "result": 0.56, "unit": "cm"}, {"measurement": "Animals with tumours/total animals, Day 45", "setting": "[4]", "result": "5/10"}, {"measurement": "Animals with tumours/total animals, Day 59", "setting": "[4]", "result": "6/10"}, {"measurement": "Tumour size, Day 26", "setting": "[4]", "result": "0.1 ± 0.6"}, {"measurement": "Tumour size, Day 31", "setting": "[4]", "result": "0.2 ± 0.2"}, {"measurement": "Tumour size, Day 37", "setting": "[4]", "result": "0.45 ± 0.2"}, {"measurement": "Tumour size, Day 41", "setting": "[4]", "result": "1.750 ± 1.1"}, {"measurement": "Tumour size, Day 53", "setting": "[4]", "result": "5.000 ± 2.2"}, {"measurement": "Tumour size, Day 59", "setting": "[4]", "result": "5.6 ± 2.2"}, {"measurement": "Tumour size, Day 0", "setting": "[4]; day of inoculation", "result": 0}, {"measurement": "Animals with tumours/total animals, Day 31", "setting": "[4]; taxol 30 mg/kg i.p. days 8,10,12,14, PLC 100 mg/kg s.c. to day 59", "result": "2/10"}, {"measurement": "Absolute neutrophils", "setting": "BALB/c mice; [6]", "result": "330 ± /mm^3"}, {"measurement": "Lymphocytes", "setting": "BALB/c mice; [6]", "result": 93.0, "unit": "%"}, {"measurement": "Neutrophils", "setting": "BALB/c mice; [6]", "result": 7.0, "unit": "%"}, {"measurement": "Absolute neutrophils", "setting": "BALB/c mice; [7]", "result": "229 ± /mm^3"}, {"measurement": "Lymphocytes", "setting": "BALB/c mice; [7]", "result": 97.1, "unit": "%"}, {"measurement": "Neutrophils", "setting": "BALB/c mice; [7]", "result": "****2.9%"}, {"measurement": "Animals with tumours/total number of animals, Day 22", "setting": "[5]", "result": "6/13"}, {"measurement": "Animals with tumours/total number of animals, Day 25", "setting": "[5]", "result": "7/13"}, {"measurement": "Animals with tumours/total number of animals, Day 28", "setting": "[5]", "result": "9/13"}, {"measurement": "Animals with tumours/total number of animals, Day 36", "setting": "[5]", "result": "11/13"}, {"measurement": "Animals with tumours/total number of animals, Day 46", "setting": "[5]", "result": "11/13"}, {"measurement": "Animals with tumours/total number of animals, Day 19", "setting": "[5]; taxol 30 mg/kg i.p. days 15,17,19,21, PLC 100 mg/kg s.c. days 12-24", "result": "6/13"}, {"measurement": "Tumour size, Day 8", "setting": "M109 murine lung cancer", "result": 539, "unit": "mm^3"}, {"measurement": "Tumour size, Day 11", "setting": "M109 murine lung cancer", "result": "662 ± mm^3"}, {"measurement": "Tumour size, Day 13", "setting": "M109 murine lung cancer", "result": "622 ± mm^3"}, {"measurement": "Tumour size, Day 15", "setting": "M109 murine lung cancer", "result": "857 ± mm^3"}, {"measurement": "Tumour size, Day 20", "setting": "M109 murine lung cancer", "result": "1085 ± mm^3"}]}, {"compound": "CC(=O)O[C@H](CC(=O)[O-])C[N+](C)(C)C", "note": "[Vehicle + ALC, acetyl L-carnitine]", "values": [{"measurement": "Tumour size, Day 8", "setting": "M109 murine lung cancer", "result": 567, "unit": "mm^3"}, {"measurement": "Tumour size, Day 11", "setting": "M109 murine lung cancer", "result": 959, "unit": "mm^3"}, {"measurement": "Tumour size, Day 13", "setting": "M109 murine lung cancer", "result": 1289, "unit": "mm^3"}, {"measurement": "Tumour size, Day 15", "setting": "M109 murine lung cancer", "result": "1779 ± mm^3"}, {"measurement": "Tumour size, Day 20", "setting": "M109 murine lung cancer", "result": 2251, "unit": "mm^3"}]}]}
